Measured values as given in US10464957B2, “Oxidized lipids and methods of use thereof” (Vascular Biogenics Ltd., priority 2014, dated 2019).

Tests used:
[1] = test system: LPS (TLR4)-induced signaling in human monocytes (primary CD14+); assay: LPS (TLR4)-induced signaling, western blot; assay type: cell-based; conditions: for formation of p-IKK, p-ERK and p-p38 induced by LPS: 20 min pretreatment, 15 min activation with 100 ng/ml LPS
Protocol: Venous blood samples were obtained from healthy male donors in compliance with the Institutional Review Board at the Sheba Medical Center, Ramat Gan, Israel. PBMCs were isolated on Ficoll-Paque PLUS (GE Healthcare, Uppsala, Sweden) using 50 ml Leucosep tubes (Greiner Bio-One, Frickenhausen, Germany). Cells were washed in PBS (Kibbutz Beit Haemek, Israel) and incubated at 4° C. for 15 minutes in a buffer containing PBS and 0.5% bovine serum albumin (BSA) with human CD14 microbeads (Miltenyi Biotec, Bergisch Gladbach, Germany).
(§1) Cells (10^6/ml) were pretreated for 20 min with VB-201 (1-hexadecyl-2-(4′-carboxy)butyl-glycero-3-phosphocholine or 1-hexadecyl-2-(4′-carboxybutyl)-glycerol-3-phosphocholine) or VB-701 at the doses indicated in FIG. 2, or with solvent (Sol), followed by 15 min activation with 100 ng/ml lipopolysaccharide (LPS) or were untreated (Unt). Cells were washed and resuspended in lysis buffer containing 1:100 dithiothreitol (DTT), phosphatase and protease inhibitors (Thermo Scientific). Samples were loaded onto a precast Criterion TGX gel (Bio-Rad, Hemel Hempstead, UK) and transferred onto nitrocellulose membrane. Blots were blocked with 5% milk or BSA in Tris buffered saline and Tween 20 (TBST) for 1 h, followed by incubation with primary and secondary antibodies. Membranes were developed using an ECL kit (Thermo Scientific). The following antibodies were used for immunoblotting:
(§2) Primary antibodies: p-p38 (Cat. No. 4511; 1:1000) and p-IKK (Cat. No. 2697; 1:1000) were from Cell Signaling Technology (Danvers, Mass., USA). p-ERK1/2 (Cat. No. M8159; 1:10000) was purchased from Sigma (Israel). αTubulin (Tub) served as a loading control.
(§3) Secondary antibodies: HRP donkey anti-rabbit (1:5000) and HRP goat anti-mouse (1:3000) were from Jackson ImmunoResearch (West Grove, Pa., USA). HRP donkey anti-goat (1:5000) was from Santa Cruz Biotechnology.
as §1, with “VB-201” for “VB-201 (1-hexadecyl-2-(4′-carboxy)butyl-glycero-3-phosphocholine”, “VB-703” for “1-hexadecyl-2-(4′-carboxybutyl)-glycerol-3-phosphocholine) or VB-701 at the doses indicated in FIG. 2, or with solvent (Sol),”, “LPS.” for “lipopolysaccharide (LPS) or were untreated (Unt).”
as §2, with “Heat shock protein (HSP) 90 (Cat. No. 13119; 1:500) was from Santa Cruz Biotechnology (Santa Cruz, Calif., USA).” for “αTubulin (Tub) served as a loading control.”

[2] = test system: PGN (TLR2)-induced signaling in human monocytes (THP-1 cell line); assay: PGN (TLR2)-induced signaling, western blot; assay type: cell-based; conditions: 20 min pretreatment, 20 μg/ml PGN for 15 minutes
Protocol: The monocytic THP-1 cell line was purchased from the American Type Tissue Culture Collection (ATCC Cat. No. TIB-202). Cells (10^6/ml) were pretreated for 20 min with VB-201 or VB-701 at the doses indicated in FIG. 3, or with solvent, followed by activation with 20 μg/ml peptidoglycan (PGN) (InvivoGen, San Diego, Calif.) for 15 minutes, or were untreated (“Unt”). Cells were washed and resuspended in lysis buffer containing 1:100 dithiothreitol (DTT), phosphatase and protease inhibitors (Thermo Scientific). Samples were loaded onto a precast Criterion TGX gel (Bio-Rad, Hemel Hempstead, UK) and transferred onto nitrocellulose membrane. Blots were blocked with 5% milk or BSA in Tris buffered saline and Tween 20 (TBST) for 1 h, followed by incubation with primary and secondary antibodies. Membranes were developed using an ECL kit (Thermo Scientific). The following antibodies were used for immunoblotting:
Primary antibodies: p-p38 (Cat. No. 4511; 1:1000) and p-IKK (Cat. No. 2697; 1:1000) were from Cell Signaling Technology (Danvers, Mass., USA). p-ERK1/2 (Cat. No. M8159; 1:10000) was purchased from Sigma (Israel). αTubulin served as a loading control.
as §3

TLR4 complex = molecular target: T1, TLR4 complex (Homo sapiens, UniProt O00206+Q9Y6Y9); assay: LPS binding inhibition assay (biotin-LPS, FACS)
T1 construct: endogenous in cells; probably the human primary monocytes of b454
T1 sequence (O00206 24-839): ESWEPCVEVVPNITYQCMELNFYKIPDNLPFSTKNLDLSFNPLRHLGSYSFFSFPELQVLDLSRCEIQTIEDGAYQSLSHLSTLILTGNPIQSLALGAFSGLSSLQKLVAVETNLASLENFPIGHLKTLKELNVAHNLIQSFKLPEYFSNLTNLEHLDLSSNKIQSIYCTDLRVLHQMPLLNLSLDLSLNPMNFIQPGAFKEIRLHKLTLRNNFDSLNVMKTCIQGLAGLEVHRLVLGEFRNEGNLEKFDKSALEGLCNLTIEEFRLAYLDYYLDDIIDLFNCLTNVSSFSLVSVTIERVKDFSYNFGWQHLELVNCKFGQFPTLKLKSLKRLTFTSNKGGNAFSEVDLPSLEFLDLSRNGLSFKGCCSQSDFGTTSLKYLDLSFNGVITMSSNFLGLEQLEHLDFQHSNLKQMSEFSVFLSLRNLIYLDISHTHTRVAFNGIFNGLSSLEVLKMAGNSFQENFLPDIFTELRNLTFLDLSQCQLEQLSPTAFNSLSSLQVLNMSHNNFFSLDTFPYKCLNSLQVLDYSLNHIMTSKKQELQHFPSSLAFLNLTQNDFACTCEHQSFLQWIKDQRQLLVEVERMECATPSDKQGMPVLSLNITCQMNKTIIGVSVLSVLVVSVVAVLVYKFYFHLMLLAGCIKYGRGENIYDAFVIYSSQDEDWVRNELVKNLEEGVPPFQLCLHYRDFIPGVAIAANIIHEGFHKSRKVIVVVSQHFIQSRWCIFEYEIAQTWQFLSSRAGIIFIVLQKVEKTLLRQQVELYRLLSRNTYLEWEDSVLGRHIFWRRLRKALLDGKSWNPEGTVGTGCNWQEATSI
T1 sequence (Q9Y6Y9 17-160 limits assumed): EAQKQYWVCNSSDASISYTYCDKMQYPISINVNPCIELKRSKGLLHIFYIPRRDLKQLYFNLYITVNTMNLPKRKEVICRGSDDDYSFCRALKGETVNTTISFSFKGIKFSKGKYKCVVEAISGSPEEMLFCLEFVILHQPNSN
Protocol: To assess interference with lipopolysaccharide (LPS) binding, VB-201 or VB-703 were incubated for 20 min with cells (10^6/ml) after which 100 ng/ml of biotin-LPS (InvivoGen) was added for an additional 15 minutes, all at 4° C. Cells were washed, resuspended in FACS buffer and analyzed on a FACS-Calibur device.

[3] = test system: LPS (TLR4) stimulated Mo-Derived DCs; assay: Cytokine secretion ELISA, LPS (TLR4)-stimulated monocyte-derived dendritic cells; assay type: cell-based, human; conditions: 1 hour pretreatment, 24 hours 100 ng/ml LPS
Protocol: To generate monocyte-derived DC (Mo-DCs), CD14+ monocytes were counted, washed and seeded (10^6/ml) in medium containing RPMI-1640, L-glutamine, β-mercaptoethanol, 10% fetal calf serum (FCS), sodium pyruvate, non-essential amino acids, 0.01 M HEPES, antibiotics (penicillin, streptomycin), 50 ng/ml human granulocyte-macrophage colony-stimulating factor (GMCSF) and 20 ng/ml human IL-4 (both from PeproTech Asia, Israel). Medium was replaced every 2-3 days. Mo-DCs were collected 5-6 days post-culture, counted and seeded (10^6/ml). Cells were pretreated for 1 hour with VB-201 or VB-703, followed by 24 hours activation with 100 ng/ml LPS from Escherichia coli strain 055:B5 (Sigma, Israel) to induce cytokine production. IL-6 concentration (FIG. 14) and IL-12/23p40 (FIG. 15) concentration in supernatant were measured by ELISA (R&D systems, Cat. No. DY1240 and Cat. No. DY206, […]). Cells activated with solvent (0.5% ethanol in PBS) were used as a control.

IC50 (TLR4 complex; biotin-LPS 100 ng/ml, 4° C., human primary monocytes) [µM] | LPS-biotin binding to human monocytes (primary CD14+) (TLR4 complex; biotin-LPS 100 ng/ml, FACS) | IC50 of LPS binding, fold lower than that of VB-201 (TLR4 complex; compared with VB-201) [fold] | Structure (SMILES) | formation of p-IKK, p-ERK and p-p38 induced by LPS ([1]; western blot) | formation of p-ERK and p-AKT induced by LPS ([1]; western blot, LPS activation) | formation of p-IKK, p-ERK and p-p38 induced by PGN [2] | IL-6 secretion [3] | IL-12p40 secretion [3] | efficacy in inhibiting TLR4-driven protein phosphorylation, fold higher than VB-201 ([1]; compared with VB-201) [fold]
~12 |  |  | CCCCCCCCCCCCCCCCOCC(COP(=O)([O-])OCC[N+](C)(C)C)OCCCCC(=O)O (stereo not shown) [VB-201, 1-hexadecyl-2-(4′-carboxy)butyl-glycero-3-phosphocholine, reference compound] | inhibit | inhibit | inhibit | inhibit | inhibit | 
 | inhibit | > 10 | CCCCCCCCCCC(CCCCCCCC)COC[C@H](COP(=O)([O-])OCC[n+]1ccccc1)OCCCCC(=O)O (stereo partly drawn) [VB-703, (R)-1-(2′-octyl)dodecyl-2-(4′-carboxy)butyl-sn-glycero-3-phosphoric acid pyridiniumethyl ester] | inhibited |  | inhibit | inhibit | inhibit | ≥ 10
